Measurements published in patent US20220087983A1, “ACTIVATING PYRUVATE KINASE R” (FORMA Therapeutics, Inc., priority 2020, published 2022).
Converted amounts (≈) assume the structure as drawn. “Also recorded” adds a separate entry of the source.

Key:
[1] = system: estradiol and testosterone levels; experiment: Circulating estradiol and testosterone in healthy subjects, 14 days; type: in vivo, human; conditions: up to 14 days, 100-300 mg BID, 400 mg QD
Protocol: Effects on circulating levels of estradiol and testosterone in male and female healthy subjects receiving Compound 1 or placebo for a treatment period of 14 days were evaluated. Compound 1 was administered twice daily (BID) at dose levels of 100 mg, 200 mg, and 300 mg, and once daily (QD) at a dose level of 400 mg. Each dosing cohort was comprised of 9 subjects treated with Compound 1 and 3 subjects treated with placebo. Testosterone and estradiol levels were assessed prior to dosing (baseline), and then on days 8, 14 and 17.

[2] = system: ATP blood levels; experiment: Phase 1: blood ATP levels in SCD patients; type: in vivo, human; conditions: single 700 mg dose (FIG. 54A)
Protocol: In this study, SAD/MAD cohorts are randomized (3 to 1) to receive Compound 1 or placebo (P). Compound 1 was evaluated first in 4 healthy SAD cohorts and 4 healthy MAD (14-day dosing period) cohorts. Based on the safety, and PK/PD profile from HS, Compound 1 is then evaluated in 1 SCD SAD cohort and 2 SCD MAD cohorts. Specifically, based on the safety and pharmacokinetic/pharmacodynamics (PK/PD) profile in healthy volunteer studies, Compound 1 is evaluated in patients (pts) with SCD, first in a single dose (SD or SAD) cohort and then in multiple-dose (MD or MAD) cohorts (14-day and 12-week). Safety assessments include AEs, vital signs, ECGs and laboratory parameters. PK/PD blood sampling was performed on Day 1 (SAD/MAD) and Day 14 (MAD) and up to 72 h after the last dose and at the end-of-study visit. […]
The following table reports the mean percentage change in ATP blood levels, relative to baseline, measured over time in SCD patients after a single dose of Compound 1 (700 mg):
ATP levels were increased from baseline in patients receiving Compound 1, resulting in improved RBC function and reduced hemoloysis. The following table reports the mean percentage change in ATP blood levels, relative to baseline, measured over time after the first dose on days 1 and 14 in SCD patients who received daily doses of Compound 1 (300 mg QD) for 14 days: […]

[3] = target: T1, CYP3A4 (Homo sapiens, UniProt P08684); experiment: Single substrate DDI assay, reversible CYP inhibition in human liver microsomes; type: in vitro ADME
T1 construct: from tissue; host or cells: human liver microsomes
T1 sequence (P08684 whole entry): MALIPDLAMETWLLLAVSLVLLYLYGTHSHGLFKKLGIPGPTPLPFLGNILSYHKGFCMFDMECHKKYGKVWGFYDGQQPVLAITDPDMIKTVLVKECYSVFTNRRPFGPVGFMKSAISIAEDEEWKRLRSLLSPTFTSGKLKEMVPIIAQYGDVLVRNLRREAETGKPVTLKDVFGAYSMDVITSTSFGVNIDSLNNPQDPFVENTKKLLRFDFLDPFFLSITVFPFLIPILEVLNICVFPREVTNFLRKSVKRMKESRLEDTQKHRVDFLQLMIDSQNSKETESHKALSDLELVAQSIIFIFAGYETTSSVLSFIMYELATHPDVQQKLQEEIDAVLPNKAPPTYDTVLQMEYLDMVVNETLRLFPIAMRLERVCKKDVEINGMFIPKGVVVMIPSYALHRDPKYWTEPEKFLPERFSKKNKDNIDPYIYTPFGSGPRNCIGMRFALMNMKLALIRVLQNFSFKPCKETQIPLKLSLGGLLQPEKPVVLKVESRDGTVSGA

[4] = Solubility in water or buffered solutions; type: physicochemical; conditions: aqueous buffer, pH about 1.07 to about 8.69
[5] = Log D7.4; type: physicochemical; conditions: pH 7.4
[6] = Phase 1: hematologic and hemolytic parameters in SCD patients; type: in vivo, human; conditions: single 700 mg dose, 24 h

O=C([C@H](CO)c1ccccc1)N1CC2=C(C1)CN(S(=O)(=O)c1cnc3c(c1)OCCO3)C2 (single isomer, unassigned) [Compound 1]
effect on testosterone and estradiol levels [1]: No effect; also recorded: no statistically significant changes
lag of maximum ATP increase behind maximum plasma concentration [2]: at least 24 hours
IC50 [3]: > 30 µM
solubility [4]: 22 to 25 µg/mL (≈ 48.1 to 54.6 µM)
logD [5]: 1.09
mean Hb difference versus placebo [6]: ~0.9 g/dL
